Data from patent US10123993B2, “Cyclic ureas as inhibitors of rock” (BRISTOL-MYERS SQUIBB COMPANY, priority 2015, dated 2018).
Counter-ions that a name gives are not always drawn.

Biological target: ROCK2 (Homo sapiens, UniProt O75116)
Test: ROCK2 kinase inhibition assay (Caliper LABCHIP, FITC peptide substrate)
Type: biochemical
Settings: 5 μM ATP, 1.5 μM peptide substrate; value ranges
Procedure, shortened: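 Dose-response curves gave IC50 from inhibition of peptide phosphorylation, measured by LabChip separation after EDTA stop. Reactions used 1.5 μM FITC-labelled peptide, 5 μM ATP, 20 mM HEPES pH 7.5 with MgCl2, Brij-35, DTT, and under 2% DMSO.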

Sequence of ROCK2 (O75116 whole entry, species assumed): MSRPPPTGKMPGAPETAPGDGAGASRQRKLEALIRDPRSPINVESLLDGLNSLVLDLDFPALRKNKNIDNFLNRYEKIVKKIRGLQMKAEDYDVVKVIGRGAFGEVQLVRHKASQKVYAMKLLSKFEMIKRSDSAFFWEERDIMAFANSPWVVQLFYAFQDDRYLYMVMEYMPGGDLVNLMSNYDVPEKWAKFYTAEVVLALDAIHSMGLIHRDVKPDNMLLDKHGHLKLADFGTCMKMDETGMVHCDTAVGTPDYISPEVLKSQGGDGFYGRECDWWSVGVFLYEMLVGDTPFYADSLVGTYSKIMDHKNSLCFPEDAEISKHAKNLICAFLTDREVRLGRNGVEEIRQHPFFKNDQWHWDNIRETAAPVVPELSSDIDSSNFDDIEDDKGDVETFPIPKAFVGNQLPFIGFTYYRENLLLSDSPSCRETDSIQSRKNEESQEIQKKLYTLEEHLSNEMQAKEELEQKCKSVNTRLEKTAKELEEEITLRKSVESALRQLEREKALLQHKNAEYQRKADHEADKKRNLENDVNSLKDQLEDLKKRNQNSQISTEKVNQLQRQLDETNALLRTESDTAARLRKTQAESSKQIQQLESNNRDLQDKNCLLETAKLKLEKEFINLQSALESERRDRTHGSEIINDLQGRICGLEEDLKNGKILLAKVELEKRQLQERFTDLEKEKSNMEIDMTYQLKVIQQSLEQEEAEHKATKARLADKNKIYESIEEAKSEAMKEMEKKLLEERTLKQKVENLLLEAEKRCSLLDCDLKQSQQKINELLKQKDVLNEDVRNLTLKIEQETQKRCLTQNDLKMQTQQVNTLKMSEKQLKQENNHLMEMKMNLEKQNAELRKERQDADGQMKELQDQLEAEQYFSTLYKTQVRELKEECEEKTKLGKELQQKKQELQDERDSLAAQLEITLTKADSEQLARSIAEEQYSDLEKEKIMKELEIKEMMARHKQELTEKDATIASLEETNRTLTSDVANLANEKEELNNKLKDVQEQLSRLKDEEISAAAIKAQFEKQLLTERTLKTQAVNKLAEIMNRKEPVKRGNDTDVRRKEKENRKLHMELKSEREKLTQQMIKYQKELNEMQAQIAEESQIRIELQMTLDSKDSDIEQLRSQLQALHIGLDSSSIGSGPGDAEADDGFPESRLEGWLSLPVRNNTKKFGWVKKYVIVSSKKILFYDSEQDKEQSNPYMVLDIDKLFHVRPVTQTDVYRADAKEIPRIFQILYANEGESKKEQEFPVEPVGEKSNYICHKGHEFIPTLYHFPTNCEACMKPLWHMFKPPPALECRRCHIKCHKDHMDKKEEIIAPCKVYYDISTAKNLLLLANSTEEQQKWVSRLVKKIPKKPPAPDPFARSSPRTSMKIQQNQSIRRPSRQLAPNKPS

SMILES | IC50
COc1cc(C(C)n2ccn(-c3ccc(-c4cn[nH]c4)cc3)c2=O)ccc1F (single isomer, unassigned) [Example 391, 1-(4-(1H-pyrazol-4-yl)phenyl)-3-(1-(4-fluoro-3-methoxyphenyl)ethyl)-1H-imidazol-2(3H)-one] | 2.1 to 20 nM
CCc1nc(-n2ccn(Cc3ccc(F)c(OC)c3)c2=O)ccc1-c1cn[nH]c1 [Example 171, 1-(6-ethyl-5-(1H-pyrazol-4-yl)pyridin-2-yl)-3-(4-fIuoro-3-methoxy-benzyl)-1H-imidazol-2(3H)-one] | 20.1 to 200 nM
COc1cc(F)cc(CN2C(=O)N(c3ccc(-c4cn[nH]c4)cc3)CC2(C)C)c1 [Example 138, 1-(4-(1H-pyrazol-4-yl)phenyl)-3-(3-fluoro-5-methoxy-benzyl)-4,4-dimethyl-imidazolidin-2-one] | 2.1 to 20 nM
CNc1nc(N2CCN(Cc3cccc(OCC4CC4)c3)C2=O)ccc1-c1cn[nH]c1 [Example 201, 1-(3-(cyclopropyl-methoxy)-benzyl)-3-(6-(methyl-amino)-5-(1H-pyrazol-4-yl)pyridin-2-yl)-imidazolidin-2-one] | 200 to 2000 nM
CCc1nc(N2CCN(C(C)c3cccc(OC)c3)C2=O)ccc1-c1cn[nH]c1 (single isomer, unassigned) [Example 174, 1-(6-ethyl-5-(1H-pyrazol-4-yl)pyridin-2-yl)-3-(1-(3-methoxy-phenyl)ethyl) imidazolidin-2-one] | 200 to 2000 nM
COc1nc(N2CCN(Cc3noc(C)n3)C2=O)ccc1-c1cn[nH]c1 [Example 255, 1-((6-methoxy-5-(1H-pyrazol-4-yl)pyridin-2-yl)-3-(5-methyl-1,2,4-oxadiazol-3-yl)methyl)imidazolidin-2-one] | 200 to 2000 nM
COc1cccc(CN2C(=O)N(c3ccc(-c4cn[nH]c4)cc3)CC2(C)C)c1F [Example 143, 1-(4-(1H-pyrazol-4-yl)phenyl)-3-(2-fluoro-3-methoxy-benzyl)-4,4-dimethyl-imidazolidin-2-one] | 20.1 to 200 nM
COc1ccc(F)c(CN2CCN(c3ccc(-c4cn[nH]c4)c(OC)c3)C2=O)c1 [Example 15, 1-(2-Fluoro-5-methoxybenzyl)-3-(3-methoxy-4-(1H-pyrazol-4-yl)phenyl)imidazolidin-2-one] | 20.1 to 200 nM
COc1nc(N2CCN(C(C)c3cccc(OCC4CC4)c3)C2=O)ccc1-c1cn[nH]c1 (single isomer, unassigned) [Example 212, 1-(1-(3-(cyclopropylmethoxy)phenyl)ethyl)-3-(6-methoxy-5-(1H-pyrazol-4-yl)pyridin-2-yl)imidazolidin-2-one] | 2.1 to 20 nM
CC(c1cccc(OCC2CC2)c1)n1ccn(-c2ccc(-c3cn[nH]c3)cc2)c1=O (single isomer, unassigned) [Example 357, 1-(4-(1H-pyrazol-4-yl)phenyl)-3-(1-(3-(cyclopropylmethoxy)phenyl)ethyl)-1H-imidazol-2(3H)-one] | 20.1 to 200 nM
COCC(c1cccc(OC)c1)N1CCN(c2ccc(-c3cn[nH]c3)cc2)C1=O (single isomer, unassigned) [Example 157, 1-(4-(1H-Pyrazol-4-yl)phenyl)-3-(2-methoxy-1-(3-methoxyphenyl)ethyl)imidazolidin-2-one] | 200 to 2000 nM
COc1cccc(CN2CC(CO)N(c3ccc(-c4cn[nH]c4)cc3)C2=O)c1 (single isomer, unassigned; (-)) [Example 47, (−)-3-(4-(1H-Pyrazol-4-yl)phenyl)-4-(hydroxymethyl)-1-(3-methoxybenzyl)imidazolidin-2-one] | 20.1 to 200 nM
COc1cccc(F)c1CN1CCN(c2ccc(-c3cn[nH]c3)c(F)c2)C1=O [Example 431, 1-(3-fluoro-4-(1H-pyrazol-4-yl)phenyl)-3-(2-fluoro-6-methoxybenzyl)imidazolidin-2-one] | 20.1 to 200 nM
CNc1nc(N2CCN(Cc3ccc(F)c(OC)c3)C2=O)ccc1-c1cn[nH]c1 [Example 199, 1-(4-fluoro-3-methoxy-benzyl)-3-(6-(methyl-amino)-5-(1H-pyrazol-4-yl)pyridin-2-yl)-imidazolidin-2-one] | 20.1 to 200 nM
COc1cc(CN2CCN(c3ccc(-c4cn[nH]c4)c(OC)n3)C2=O)ccc1F [Example 214, 1-(4-fluoro-3-methoxybenzyl)-3-(6-methoxy-5-(1H-pyrazol-4-yl)pyridin-2-yl)imidazolidin-2-one] | < 2 nM
COc1cccc(C(C(=O)NCC2CC2)N2CCN(c3ccc(-c4cn[nH]c4)cc3)C2=O)c1 (single isomer, unassigned) [Example 296, 2-(3-(4-(1H-pyrazol-4-yl)phenyl)-2-oxoimidazolidin-1-yl)-N-(cyclopropylmethyl)-2-(3-methoxyphenyl)acetamide] | 20.1 to 200 nM
COc1cccc(C(CO)N2CCN(c3ccc(-c4cn[nH]c4)cn3)C2=O)c1 (single isomer, unassigned) [Example 462, 1-(5-(1H-pyrazol-4-yl)pyridin-2-yl)-3-(2-hydroxy-1-(3-methoxyphenyl)ethyl)imidazolidin-2-one] | 20.1 to 200 nM
O=c1n(Cc2c(F)cccc2F)ccn1-c1ccc(-c2cn[nH]c2)cc1 [Example 68, 1-(4-(1H-pyrazol-4-yl)phenyl)-3-(2,6-difluorobenzyl)-1H-imidazol-2(3H)-one] | 20.1 to 200 nM
CC(c1cccc(OCC2CC2)c1)N1CCN(c2ccc(-c3cn[nH]c3)cc2)C1=O (single isomer, unassigned) [Example 196, 1-(4-(1H-pyrazol-4-yl)-phenyl)-3-(1-(3-(cyclo-propyl-methoxy)-phenyl)-ethyl)-imidazolidin-2-one] | 2.1 to 20 nM
COc1cccc(CN2CC(=O)N(c3ccc(-c4cn[nH]c4)c(OC)c3)C2=O)c1 [Example 93, 3-(3-methoxy-4-(1H-pyrazol-4-yl)phenyl)-1-(3-methoxybenzyl)imidazolidine-2,4-dione, TFA] | 20.1 to 200 nM
COc1cc(C(C)N2CCN(c3ccc(-c4cn[nH]c4)c(C)n3)C2=O)ccc1F (single isomer, unassigned) [Example 208, 1-(1-(4-fluoro-3-methoxyphenyl)ethyl)-3-(6-methyl-5-(1H-pyrazol-4-yl)pyridin-2-yl)imidazolidin-2-one] | 200 to 2000 nM
COc1cc(C(C)N2CCN(c3ccc(-c4cn[nH]c4)c(OC)n3)C2=O)ccc1F (single isomer, unassigned) [Example 230, 1-(1-(4-fluoro-3-methoxyphenyl)ethyl)-3-(6-methoxy-5-(1H-pyrazol-4-yl)pyridin-2-yl)imidazolidin-2-one] | < 2 nM
CCc1nc(-n2ccn(Cc3cccc(OC)c3)c2=O)ccc1-c1cn[nH]c1 [Example 180, 1-(6-ethyl-5-(1H-pyrazol-4-yl)pyridin-2-yl)-3-(3-methoxy-benzyl)-1H-imidazol-2(3H)-one] | < 2 nM
CCc1cc(-n2ccn(Cc3ccc(F)c(OC)c3)c2=O)ccc1-c1cn[nH]c1 [Example 348, 1-(3-ethyl-4-(1H-pyrazol-4-yl)phenyl)-3-(4-fluoro-3-methoxybenzyl)-1H-imidazol-2(3H)-one] | 20.1 to 200 nM
COc1cccc(CN2CC(C(=O)O)N(c3ccc(-c4cn[nH]c4)cc3)C2=O)c1 (centres unmarked) [Example 35, 3-(4-(1H-Pyrazol-4-yl)phenyl)-1-(3-methoxybenzyl)-2-oxoimidazolidine-4-carboxylic Acid] | 20.1 to 200 nM
COc1cccc(C(CCO)N2CCN(c3ccc(-c4cn[nH]c4)c(OC)c3)C2=O)c1 (centres unmarked) [Example 21, 1-(3-Hydroxy-1-(3-methoxyphenyl)propyl)-3-(3-methoxy-4-(1H-pyrazol-4-yl)phenyl)imidazolidin-2-one] | 2.1 to 20 nM
